Laboratory results from ChEMBL document CHEMBL3507680, “University of Dundee, Gates Library screen for HepG2 cell viability”.

Assay: Human HepG2 cell viability assay in 384 well format
Assay type: toxicity, cell-based
Set-up: dose 125 nL, time 70.5 hour; cytotoxicity at 70.5 h: concentration not given beside the values
Conditions: HepG2 cells, read-out: Inhibition

| SMILES | cytotoxicity at 70.5 h [%] |
| --- | --- |
| O=C(NCCn1cccn1)C1CCC(=O)N(CC2CCCCC2)C1 (stereo unspecified) | 18 |
| CC(C)[C@@H]1CN(C2CCN(Cc3ccccc3)CC2)C[C@H]1NS(C)(=O)=O | 0.292 |
| OCC1(O)CCN(c2ccnc3c(C(F)(F)F)cccc23)CC1 | -3.41 |
| CC(=O)c1cnc(N(C)Cc2cc(C)cc(C)n2)nc1C | -8.24 |
| COC(=O)CCCn1ccnc1-c1ccccc1 | -3.23 |
| O=C(O)c1cccc(N2C[C@H](NC(=O)C3CCOCC3)[C@@H](C3CC3)C2)n1 | -4.78 |
| Cc1cc(N2CCC(c3nccn3Cc3cscn3)CC2)ccn1 | -3.14 |
| CCC(CC)CN1CCC2(CCC(=O)N2OCc2ccccc2F)CC1 | 21.6 |
| CCOC(=O)c1coc(N2CCC(N3CCC(O)CC3)CC2)n1 | -7.59 |
| CS(=O)(=O)N1CCC(N2CCCC2c2ccccn2)CC1 (stereo unspecified) | 2.33 |
| CN1CC(c2ccccc2)CC2(CCN(C(=O)c3ccccc3)CC2)C1 (stereo unspecified) | -5.15 |
| Nc1ccnc(N2C[C@H](O)[C@@H](N3CCN(c4ccccn4)CC3)C2)n1 | -17.6 |
| Cc1nn2c(N3CCC(C#N)CC3)cc(-c3ccccc3)nc2c1C | 1.27 |
| Cn1ccnc1SCCNC1CCN(c2nc3ccccc3s2)CC1 | -1.58 |
| Cc1nc(C(C)C)ncc1C(=O)N1CCc2c(nc(N(C)C)[nH]c2=O)C1 | -4.39 |
| CCc1nn(C)c(Cl)c1CN1CCC(Cc2nncn2C)CC1 | -3.75 |
| CSCc1nc(CCNC(=O)C2CCCN(C(C)=O)C2)cs1 (stereo unspecified) | -2.37 |
| CCN1CC2(CCC1=O)CCN(Cc1nncn1C)CC2 | -5.87 |
| O=C(NCCc1nccs1)C1CCCN(Cc2ccco2)C1 (stereo unspecified) | -2.53 |
| CCOc1ccc(CN2CCCC(c3nn(C)c(=O)n3CC)C2)cn1 (stereo unspecified) | -6.89 |
| Cc1noc(-c2ccc(N3CCN(Cc4nccn4C)CC3)nc2)n1 | -15.7 |
| Fc1ccc(-c2cc(NCCC3CCOC3)n3nccc3n2)cc1 (stereo unspecified) | 0.148 |
| COC(C)(C)C(=O)N[C@H]1CN(c2nccnc2N(C)C)C[C@@H]1C(C)C | -5.98 |

| SMILES | cytotoxicity at 70.5 h [%] |
| --- | --- |
| CC(C)c1nc(CCn2cncn2)n(-c2ccc3c(c2)OCCO3)n1 | -12.6 |
| CC(C)CCNC(=O)C(c1cccc(F)c1)N(C)C (stereo unspecified) | 3.05 |
| c1cc2c(c(-c3cc(N4CCOCC4)ncn3)c1)CCNC2 | -7.28 |
| CCCOC1CCCN(c2ccnc(C(=O)NCc3ccco3)c2)C1 (stereo unspecified) | -8.53 |
| CN1CCC(O)(CCNC(=O)[C@@]23CNC[C@@H]2CN(C2CCCC2)C3)CC1 | 11.4 |
| c1ccc2c(c1)CC(n1ccnc1-c1cc3n(n1)CCCNC3)CO2 (stereo unspecified) | -6.83 |
| O=C(CC1CC1)N(Cc1cccnc1)CC1CCN(C2CCCC2)CC1 | -1.09 |
| Cc1cccc2c(=O)n(C(C)Cc3cccnc3)cnc12 (stereo unspecified) | -8.06 |
| COCCCn1c(CN2CCSCC2)cnc1S(=O)(=O)C1CCCC1 | -2.29 |
| CC(C)CCCC1CN(C(=O)c2cnc[nH]2)CCO1 (stereo unspecified) | -11.4 |
| Cc1cc(C)c2c(N3CCN(Cc4ncccc4C)CC3)ncnc2n1 | -8.35 |
| Cc1nc2cc(C(=O)N3C[C@@H](NS(C)(=O)=O)[C@H](C(C)C)C3)ccc2[nH]1 | 18.5 |
| Cc1cc(C)c2nc(CN3CCOCC(O)C3)cc(O)c2c1 (stereo unspecified) | -0.735 |
| CCN(Cc1nc(COC)no1)Cc1cccnc1NC | -21.9 |
| CCOC(=O)c1coc(N2CCC(C(O)CC(C)C)CC2)n1 (stereo unspecified) | -1.6 |
| COc1cccc(N2CCC(N3CCOC(C(F)(F)F)C3)CC2)c1 (stereo unspecified) | -18.1 |
| O=C(NC1CCNC1)C1(N2CCCCC2)Cc2ccccc2C1 (stereo unspecified) | 1.09 |
| CN1CCC(n2nc(CC3CC3)nc2-c2ccc(F)cc2Cl)CC1 | -7.5 |
| COC[C@@]12CC[C@@H](N3CCOCC3)C[C@H]1CCN(c1cnccn1)C2 | 13.9 |
| Cc1ccc(-c2cn(C3CCN(C(=O)[C@H]4CCCO4)CC3)nn2)cc1 | -5.5 |
| COCCCN1CCN(c2ncnc3nc(C)cc(C)c23)CC1 | -4.17 |
| CCNc1ncc(CN(CCN(C)C)Cc2ccc(C)s2)cn1 | -7.34 |
| CCCN1CCC(N2CCC(Cn3cc(CC(C)O)nn3)CC2)CC1 (stereo unspecified) | -6.23 |

| SMILES | cytotoxicity at 70.5 h [%] |
| --- | --- |
| CC(C)(O)CCc1ccc(C(=O)N2Cc3cnn(CCO)c3C2)cc1 | -11.3 |
| CCCc1ncc(CN(C)C2CCCN(CCc3ccccc3)C2)cn1 (stereo unspecified) | -4.41 |
| CN(C)[C@@H]1C[C@@H](CO)N(C(=O)Nc2cccc(F)c2F)C1 | 19.1 |
| Cc1nc2c(c(NCC(O)c3ccccc3Cl)n1)CCNCC2 (stereo unspecified) | -11.8 |
| Oc1cccc2ccc(CN3CCC4(CCNCC4)C3)nc12 | -4.99 |
| C=C(C)COc1cccc(C(=O)N(CC)Cc2nccn2C)c1 | 2.21 |
| CN(C)CCn1ccnc1C1CCCN(C(=O)CCc2cccnc2)C1 (stereo unspecified) | -4.26 |
| Cc1cccnc1NCCNC(=O)c1cnc(-c2cccs2)nc1O | -0.575 |
| COc1cccc(N2CCN(Cc3cc(C)cc(F)c3)CC2=O)c1 | -3.94 |
| CC[C@H](CO)NC(=O)c1coc(COc2cccc(F)c2F)n1 | 9.55 |
| O=C1CC(NCc2cnc(C3CCCCC3)nc2)CN1c1ccccc1 (stereo unspecified) | 13.8 |
| Cn1cc(CN2CCCC(CCc3ccccc3C(F)(F)F)C2)cn1 (stereo unspecified) | -1.24 |
| Cc1ncnc(NC(CC(C)(C)C)c2cccnc2)c1C (stereo unspecified) | -2.93 |
| COc1ccc(CN(C)C2CCN(C(=O)C(C)C)CC2)c2cccnc12 | -10.3 |
| COC(=O)c1ccc2ccn(CC3CCCN(C)C3)c(=O)c2c1 (stereo unspecified) | 25.4 |
| CC(C)c1cc(NCC2(CO)CCC2)ncn1 | 17.4 |
| CCOCCn1nc(C)cc1C(=O)N(C)Cc1cccc2ncccc12 | 20.2 |
| Cc1nsc(NC(=O)NC2CCOCC2)n1 | 13.1 |
| CCN1CCN(C(=O)c2cc(-c3cccn3C)n[nH]2)[C@H]2CS(=O)(=O)C[C@H]21 | -18.3 |
| Cc1ccc(-c2cnnc(NCC3CCOCC3)n2)o1 | 28.5 |
| Cc1nn(C)c2nc(N(Cc3nccs3)C3CC3)sc12 | -15.9 |
| Cn1c(C(N)=O)cc2c1CN(C(=O)C1CCCN(C3CCCC3)C1)CC2 (stereo unspecified) | -7.9 |
| CN(Cc1nncn1C)C(=O)c1cc(COc2ccccc2)[nH]n1 | -5.51 |

| SMILES | cytotoxicity at 70.5 h [%] |
| --- | --- |
| CCC(=O)N1CCN(Cc2cnc(C)nc2)[C@H]2CS(=O)(=O)C[C@H]21 | 12.9 |
| CCCc1cncnc1N1CCC(NCCc2ccc(O)cc2)CC1 | -6.17 |
| Cc1cc(C(=O)N[C@H]2CN(CCO)C[C@@H]2C2CC2)sc1C | -3.28 |
| CN1CCCC(CCC(=O)N2CCc3c(nc(CC4CC4)[nH]c3=O)C2)C1 (stereo unspecified) | -4.3 |
| Nc1cc(-c2ccc(C(=O)O)cc2O)c2cc[nH]c2n1 | 4.2 |
| CCC(=O)Nc1cc(Cl)ccc1C(=O)N(C)Cc1noc(CC)n1 | -5.2 |
| Cc1cnccc1CNCc1ccc(OC23CCCN(CC2)C3)cc1 (stereo unspecified) | -6.06 |
| CN1CCCCC1CCC(=O)NCCCn1nccc1C1CC1 (stereo unspecified) | -11.4 |
| CC(C)n1cc(C(=O)NCCc2cn3ccsc3n2)cn1 | 13.8 |
| CNC(=O)[C@@H]1C[C@@H](N)CN1C1CCN(Cc2ccccn2)CC1 | 20.3 |
| CCn1cc(CN2CCN(Cc3cccc(OC)c3)C(=O)C2)cc1C#N | -1.17 |
| Cc1cc(CN2C[C@H]3CC[C@@H]2CN(Cc2[nH]cnc2C)C3)on1 | -6.39 |
| Cc1noc(C)c1-c1n[nH]c2c1CN(S(=O)(=O)c1cccnc1)CC2 | -6.84 |
| OC1CCN([C@@H]2CCN(c3nc(-c4ccccc4)no3)C[C@H]2O)CC1 | -1.33 |
| CNc1cc(C)nc(N2C[C@H](NC(=O)C3CCOCC3)[C@@H](C3CC3)C2)n1 | 1.67 |
| Cc1cccc(CN2C[C@@H](CN3CCCN(C)CC3)[C@@H](CO)C2)n1 | 26.4 |
| Cc1ccsc1-c1cccc(-c2ccn(CC3CCNC3)n2)c1 (stereo unspecified) | 21.5 |
| Cc1cccnc1CNCC1(O)CCCN(CC(C)(C)C)C1=O (stereo unspecified) | -4.51 |
| COc1ccc(OC)c(-n2cnnc2CCN)c1 | -4.57 |
| CNC(=O)[C@@H]1C[C@H](N)CN1S(=O)(=O)c1cc(Cl)c(Cl)s1 | -2.73 |
| COc1ccc(CN(C)C(=O)c2nnc(CN(C)C)o2)cc1 | -3.32 |
| Cc1nn(C)cc1CN1C[C@@H]2CC[C@H](C1)N(Cc1c(C)noc1C)C2=O | 32.1 |
| Cc1noc(C)c1CCN1CCCC1c1nc2cc(F)ccc2[nH]1 (stereo unspecified) | -5.52 |

| SMILES | cytotoxicity at 70.5 h [%] |
| --- | --- |
| Cc1ccccc1-n1cc(CN(C)C[C@@H]2CCCN3CCCC[C@H]23)cn1 | -12.2 |
| CCn1cc(C(=O)NCc2cccnc2N(C)Cc2ccccc2)cn1 | 2.58 |
| COCCC(=O)N1CCCC(CCC(=O)NCc2cccc(OC)c2)C1 (stereo unspecified) | 20.8 |
| CN(Cc1cc(-c2cccnc2)no1)C(=O)c1cccn1C | 0.783 |
| CC(C(=O)O)N1CC2(CCC1=O)CCN(C/C=C/c1ccccc1)CC2 (stereo unspecified) | -7.03 |
| COCc1ncc(-c2nccn2CCN(C)C)cn1 | -2.63 |
| O=S(=O)(N1CCOCC1)N1CCOC(CCCc2ccccc2)C1 (stereo unspecified) | -11.2 |
| COc1cc(C2CC(=O)Nc3c2nc2n3CCCC2)cc2c1OCO2 (stereo unspecified) | -12 |
| O=C(NCC1CCCO1)c1ccc(S(=O)(=O)NCCc2cn[nH]c2)cc1 (stereo unspecified) | -4.87 |
| Cc1nn(C)cc1C(=O)N1CCCC(c2nccn2CC2CCC2)C1 (stereo unspecified) | -28.4 |
| O=C1NCC2(CCN(C(=O)c3ccc4c(c3)CCCO4)CC2)O1 | -1.35 |
| CC(C)Oc1cc(N2C[C@H](C3CC3)[C@@H](N)C2)nc(N)n1 | -25.3 |
| c1cc(CN2CCC(c3ccncc3)CC2)cc(Cn2cccn2)c1 | -1.99 |
| CC(CN1CCC2(CC1)N=C(N(C)C)NC2=O)c1ccccc1 (stereo unspecified) | -12.1 |
| Cc1ccc(C)c2c(O)cc(CN3CCC(c4nncn4C)CC3)nc12 | 0.0856 |
| O=C(c1cc(COc2ccc3c(c2)OCO3)[nH]n1)N1CCCC(O)C1 (stereo unspecified) | 0.249 |
| Cc1ncsc1CCN(C)C(=O)CN1CCOc2ccccc2C1 | 0.856 |
| Cc1ccc(C(C(=O)N2CCN(C(=O)c3ccc[nH]3)CC2)N(C)C)cc1 (stereo unspecified) | -3.84 |
| Cc1nccn1C1(C(=O)O)CCN(Cc2ccc3occc3c2)CC1 | -7.56 |
